Data taken from ChEMBL document CHEMBL2406949, “Novel chlorinated dibenzofurans isolated from the cellular slime mold, Polysphondylium filamentosum, and their biological activities” (Bioorg Med Chem, 2013).
Active and inactive are the calls of the source. No cut-off for these calls is given here.

Key:
3T3-L1 = test: Growth inhibition of mouse 3T3L1 cells at 10 uM after 3 days by Alamar blue assay; format: cell-based; conditions: 3t3-l1, 72 h
HeLa = test: Growth inhibition of human HeLa cells at 5 uM after 3 days by Alamar blue assay; format: functional, cell-based
S2 [1] = test: Inhibition of innate immune response in Drosophila melanogaster S2 cells assessed as reduction in DAP-type peptidoglycans-mediated activation of Dpt-LacZ gene expression at 1 uM after 12 hrs by beta-galactosidase reporter assay; format: functional, cell-based
K562 = test: Growth inhibition of human K562 cells at 2 uM after 3 days by Alamar blue assay; format: functional, cell-based
Dictyostelium discoideum [2] = test: Induction of stalk cell differentiation in Dictyostelium discoideum HM44 at […] after 2 days by phase-contrast microscopy; format: functional, organism-based
[3] = Cytotoxicity against Drosophila melanogaster S2 cells assessed as cell viability up to 1 uM; format: cell-based
S2 [4] = test: Inhibition of heat shock-mediated activation of hs-Gal4/UAS-lacZ gene expression in Drosophila melanogaster S2 cells after 12 hrs by beta-galactosidase reporter assay; format: functional, cell-based
[5] = Cytotoxicity against Drosophila melanogaster S2 cells assessed as inhibition of beta-galactosidase gene expression; format: cell-based
Dictyostelium discoideum [6] = test: Induction of stalk cell differentiation in Dictyostelium discoideum HM44 after 2 days by phase-contrast microscopy; format: functional, organism-based
Dictyostelium discoideum [7] = test: Induction of stalk cell differentiation in Dictyostelium discoideum HM44 at 1 nM after 2 days by phase-contrast microscopy; format: functional

Compound	growth inhibition (GI) (3T3-L1)	growth inhibition (GI) (HeLa)	inhibition (S2 [1])	growth inhibition (GI) (K562)	Activity (Dictyostelium discoideum [2])	Activity [3]	inhibition (S2 [4])	Activity [5]	Activity (Dictyostelium discoideum [6])	Activity (Dictyostelium discoideum [7]) [%]
CCCC(=O)c1c(OC)c(Cl)c2oc3c(Cl)c(OC)c(Cl)c(O)c3c2c1OC	Non-toxic	inactive	inactive	inactive	inactive					
CCCCCC(=O)c1c(OC)c(Cl)c2oc3c(Cl)c(OC)c(Cl)c(O)c3c2c1O	Toxic	Active	Active	Active	inactive	Non-toxic	Dose-dependent effect	Non-toxic		
CCCC(=O)c1c(OC)c(Cl)c2oc3c(Cl)c(OC)c(Cl)c(O)c3c2c1O	Toxic	Active	Active	Active		Non-toxic	Dose-dependent effect	Non-toxic	Dose-dependent effect	
CCCCCC(=O)c1c(O)c(Cl)c(OC)c(Cl)c1O										>80
